“And” between values parts separate entries of the source, which are not always exact repeats. Identical values can stand only once. Like-named read-outs stand apart in the source and are kept apart here.
Legend:
[1] = molecular target: Testosterone 5α-reductase; experiment: Testosterone 5α-reductase inhibitory action (nuclear fraction of ventral prostate); assay type: biochemical, rat (male Wistar); conditions: rat ventral prostate nuclear fraction; [4-^14 C]-testosterone, NADPH; 60 min at 37° C
Method: Testosterone 5α-Reductase Inhibitory Action
Male Wistar rats (age: 9-10 weeks old) were anesthetized with ethyl ether and ventral prostates were dissected. The isolated prostates were weighed and homogenized with ultradisperser(Yamato, Japan) and teflon-glass homogenizer in 3 tissue volumes of 50 mM Tris-HCl buffer(pH 7.2) containing 0.25M sucrose and 1 mM dithiothreitol. The homogenates were filtered with gauze and centrifuged at 3,000 rpm for 10 minutes at 4° C. The pellets were resuspended in same buffer as described above and the resultant suspension was used as the nuclear fraction.
Testosterone 5α-reductase activity was carried out described as follows. The reaction mixture contained […] of nuclear fraction 0.1 ml of 5 mM NADPH, 0.01 ml of test drug dissolved in dimethylsulfoxide and 0.78ml of Tris-HCl buffer(pH 7.0). The reaction was started by addition of 0.01 ml of 150 μM [4-^14 C]-testosterone and incubated for 60 minutes at 37° C. After incubation, reaction was stopped by adding 4 ml of ethyl acetate. 3 ml of ethyl acetate was evaporated under nitrogen to dryness and dissolved in 40 μl of ethyl acetate. 10 μl of ethyl acetate was applied to silica gel thin layer plate(HF254, Merck) and the plate was developed in ethyl acetate and cyclohexane(1:1). The plate was subjected to autoradiography and the radioactivity profiles were determined by scraping the spots of testosterone, dihydrotestosterone and other metabolites and counting in a scintillation counter. Testosterone 5a -reductase activity was calculated for the total radioactivity and radioactivities of dihydrotestosterone and other metabolites. The inhibitory activity of test drug was expressed as IC50 (nM).

α1 -Adrenoceptor = molecular target: T1, α1 -Adrenoceptor (Oryctolagus cuniculus, UniProt O02824); experiment: α1-Adrenoceptor blocking action (antagonism of phenylephrine-induced contraction of isolated urethra and prostate strips); assay type: cell-based, rabbit (male albino)
T1 construct: smooth muscle strips were prepared from prostate and proximal urethra; from tissue; host or cells: rabbit prostate and proximal urethra smooth muscle strips
T1 sequence (O02824 1-466): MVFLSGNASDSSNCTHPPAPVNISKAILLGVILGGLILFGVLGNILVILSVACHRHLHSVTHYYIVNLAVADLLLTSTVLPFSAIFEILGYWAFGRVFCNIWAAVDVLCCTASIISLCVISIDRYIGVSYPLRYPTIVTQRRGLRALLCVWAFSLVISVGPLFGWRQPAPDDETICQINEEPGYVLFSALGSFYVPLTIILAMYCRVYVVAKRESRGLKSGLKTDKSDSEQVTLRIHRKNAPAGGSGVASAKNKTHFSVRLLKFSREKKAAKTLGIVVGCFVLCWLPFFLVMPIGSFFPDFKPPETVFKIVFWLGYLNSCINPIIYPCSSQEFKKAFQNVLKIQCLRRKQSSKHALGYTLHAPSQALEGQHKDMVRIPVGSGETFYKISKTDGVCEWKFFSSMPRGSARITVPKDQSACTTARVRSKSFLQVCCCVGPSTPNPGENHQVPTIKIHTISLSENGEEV
Method: α1 -Adrenoceptor Blocking Action
Male albino rabbits were sacrificed by exsanguination, and the prostate and urethra were isolated. After removal of fat and connective tissues, tranverse smooth muscle strips were prepared from prostate and proximal urethra. Each segmental strip was suspended in an organ bath at 37° C. in a Krebs-Henseleit solution which had been bubbled with 95% O2 and 5% CO2. The isometric contraction under a resting tension of 1 g was recorded with a force-displacement transducer(TB-651T, Nihon Koden) on a recoder(RECTI HORIZ 8K, Nihon Sanei).
After an equilibration of tissues at least 60 minutes, contractions were elicited by repeated dose of phenylephrine until constant contraction responses were obtained. Subsequently, the dose-response curves were obtained by increasing concentrations of phenylephrine(10^-7 -×10^-4 M). After the resting period for 60 minutes, tissues were incubated with test drugs for 30 minutes and dose-response curves were constructed as described above.
In all cases, 10^-5 M propranolol(β-adrenoceptor antagonist) was administered 10 minutes before the contraction by phenylephrine.
The composition of the Krebs-Henseleit solution was as follows(mM): NaCl 118.4, KCl 4.7, MgSO4 1.2, CaCl2 2.5, NaHCO3 25.0, glucose 11.1, KH2 PO4 1.2.
The potency of each test drug was expressed as the pA2 value(negative logarithm of the antagonist dissociation constant).

[2] = isolated rabbit prostate strips, phenylephrine contraction, 30 min incubation with drug, 10^-5 M propranolol, pA2 = negative logarithm of antagonist dissociation constant, read-out: Prostate (pA2) (converted)
[3] = isolated rabbit proximal urethra strips, phenylephrine contraction, 30 min incubation with drug, 10^-5 M propranolol, pA2 = negative logarithm of antagonist dissociation constant, read-out: Urethra (pA2) (converted)

Structure (SMILES) | IC50 [1] [nM] | Kb (α1 -Adrenoceptor) | further results
COc1cc(C(=O)c2cn(CCCC(=O)O)c3ccccc23)ccc1O[C@@H](CCN1CCN(c2ccccc2OC)CC1)c1ccccc1 [Example 35, Potassium S-4-{3-{3-methoxy-4-{1-phenyl-3-[4-(2-methoxyphenyl)piperazin-1-yl]propoxy}benzoyl}indol-1-yl}butanoate] | 6.8 |  | Kb (α1 -Adrenoceptor; [2]): 27.5 nM; Kb (α1 -Adrenoceptor; [3]): 64.6 nM
COc1cc(C(=O)c2cn(CCCC(=O)O)c3ccccc23)ccc1OC(CCN1CCN(c2ccccc2OC)CC1)c1ccccc1 (stereo not drawn) [Example 14, Potassium 4-{3-{3-methoxy-4-{1-phenyl-3-[4-(2-methoxyphenyl)piperazin-1-yl]propoxy}benzoyl}indol-1-yl}butanoate] |  | 389 nM and 72.4 nM | 
COc1ccccc1N1CCN(CCCOc2cc(C(=O)c3cn(CCCC(=O)O)c4ccccc34)ccc2OCc2ccc(F)cc2)CC1 [Example 42, Potassium 4-{3-{4-(4-fluorophenylmethoxy)-3-{3-[4-(2-methoxyphenyl)piperazin-1-yl]propoxy}benzoyl}indol-1-yl}butanoate] |  | 398 nM and 70.8 nM | 
COc1ccccc1N1CCN(CCC(Oc2cccc(C(=O)c3cn(CCCC(=O)O)c4ccccc34)c2)c2ccc(C)cc2)CC1 (stereo not drawn) [Example 28, Potassium 4-{3-{3-{1-(4-methylphenyl)-3-[4-(2-methoxyphenyl)piperazin-1-yl]propoxy}benzoyl}indol-1-yl}butanoate] |  | 166 nM and 102 nM | 
COc1ccccc1N1CCN(CCCCOc2cc(C(=O)c3cn(CCCC(=O)O)c4ccccc34)ccc2OCc2ccc(C)cc2)CC1 [Example 46, Potassium 4-{3-{3-{4-[4-(2-methoxyphenyl)piperazin-1-yl]butoxy}-4-(4-methylphenylmethoxy)benzoyl}indol-1-yl}butanoate] | 1.5 |  | 
COc1ccc(C(CCN2CCN(c3ccccc3OC)CC2)Oc2ccc(C(=O)c3cn(CCCC(=O)O)c4ccccc34)cc2)cc1 (stereo not drawn) [Example 20, Potassium 4-{3-{4-{1-(4-methoxyphenyl)-3-[4-(2-methoxyphenyl)piperazin-1-yl]propoxy}benzoyl}indol-1-yl}butanoate] |  | 692 nM and 562 nM | 
CCOc1ccccc1N1CCN(CCC(Oc2ccc(C(=O)c3cn(CCCC(=O)O)c4ccccc34)cc2OC)c2ccccc2)CC1 (stereo not drawn) [Example 15, Potassium 4-{3-{3-methoxy-4-{1-phenyl-3-[4-(2-ethoxyphenyl)piperazin-1-yl]propoxy}benzoyl}indol-1-yl}butanoate] | 7.9 | 251 nM and 50.1 nM | 
COc1cc(C(=O)c2cn(CCCC(=O)O)c3ccccc23)ccc1OC(CCN1CCN(c2ccccc2OC(C)C)CC1)c1ccc(C)cc1 (stereo not drawn) [Example 11, Potassium 4-{3-{3-methoxy-4-{1-(4-methylphenyl)-3-[4-(2-isopropoxyphenyl)piperazin-1-yl]propoxy}benzoyl}indol-1-yl}butanoate] | 3.1 |  | 
CC(C)Oc1ccccc1N1CCN(CCC(Oc2ccc(C(=O)c3cn(CCCC(=O)O)c4ccccc34)cc2)c2ccccc2)CC1 (stereo not drawn) [Example 5, 4-{3-{4-{1-Phenyl-3-[4-(2-isopropoxyphenyl)piperazin-1-yl]propoxy}benzoyl}indol-1-yl}butanoic acid] |  | 1100 nM and 141 nM | 
COc1ccccc1N1CCN(CCCOc2ccc(C(=O)c3cn(CCCC(=O)O)c4ccccc34)cc2)CC1 [Example 3, Potassium 4-{3-{4-{3-[4-(2-methoxyphenyl)piperazin-1-yl]propoxy}benzoyl}indol-1-yl}butanoate] |  | 115 nM and 75.9 nM | 
COc1ccccc1N1CCN(CCCOc2cc(C(=O)c3cn(CCCC(=O)O)c4ccccc34)ccc2OCc2ccccc2)CC1 [Example 38, Potassium 4-{3-{4-benzyloxy-3-{3-[4-(2-methoxyphenyl)piperazin-1-yl]propoxy}benzoyl}indol-1-yl}butanoate] |  | 36.3 nM and 16.6 nM | 
Cc1ccc(C(CCN2CCN(c3ccccc3OC(C)C)CC2)Oc2ccc(C(=O)c3cn(CCCC(=O)O)c4ccccc34)cc2)cc1 (stereo not drawn) [Example 8, Potassium 4-{3-{4-{1-(4-methylphenyl)-3-[4-(2-isopropoxyphenyl)piperazin-1-yl]propoxy}benzoyl}indol-1-yl}butanoate] | 0.26 |  | 
CCOc1ccccc1N1CCN(CCCOc2cc(C(=O)c3cn(CCCC(=O)O)c4ccccc34)ccc2OCc2ccc(C)cc2)CC1 [Example 45, Potassium 4-{3-{4-(4-methylphenylmethoxy)-3-{3-[4-(2-ethoxyphenyl)piperazin-1-yl]propoxy}benzoyl}indol-1-yl}butanoate] | 1.5 | 56.2 nM and 34.7 nM | 
COc1ccccc1N1CCN(CCC(Oc2ccc(C(=O)c3cn(CCCC(=O)O)c4ccccc34)cc2OCc2ccccc2)c2ccc(C)cc2)CC1 (stereo not drawn) [Example 26, 4-{3-{3-Benzyloxy-4-{1-(4-methylphenyl)-3-[4-(2-methoxyphenyl)piperazin-1-yl]propoxy}benzoyl}indol-1-yl}butanoic acid] | 5 |  | 
COc1cc(C(=O)c2cn(CCCC(=O)O)c3ccccc23)ccc1OC(CCN1CCN(c2ccccc2OC)CC1)c1ccc(C)cc1 (stereo not drawn) [Example 1, Potassium 4-{3-{3-methoxy-4-{1-(4-methylphenyl)-3-[4-(2-methoxyphenyl)piperazin-1-yl]propoxy}benzoyl}indol-1-yl} butanoate] | 3.7 |  | Kb (α1 -Adrenoceptor; [2]): 87.1 nM; Kb (α1 -Adrenoceptor; [3]): 380 nM
COc1cc(C(=O)c2cn(CCCC(=O)O)c3ccccc23)ccc1OC(CCN1CCN(c2ccccc2OC)CC1)c1ccc(CC(C)C)cc1 (stereo not drawn) [Example 13, Potassium 4-{3-{3-methoxy-4-{1-(4-isobutylphenyl)-3-[4-(2-methoxyphenyl)piperazin-1-yl]propoxy}benzoyl}indol-1-yl}butanoate] | 1.4 |  | 
COc1ccccc1N1CCN(CCCOc2ccc(C(=O)c3cn(CCCC(=O)O)c4ccccc34)cc2OCc2ccccc2)CC1 [Example 24, 4-{3-{3-Benzyloxy-4-{3-[4-(2-methoxyphenyl)piperazin-1-yl]propoxy}benzoyl}indol-1-yl}butanoic acid] |  | 631 nM and 100 nM | 
COc1cc(C(=O)c2cn(CCCC(=O)O)c3ccccc23)ccc1OC(CCN1CCN(c2ccccc2OC(C)C)CC1)c1ccccc1 (stereo not drawn) [Example 16, Potassium 4-{3-{3-methoxy-4-{1-phenyl-3-[4-(2-isopropoxyphenyl)piperazin-1-yl]propoxy}benzoyl}indol-1-yl}butanoate] |  | 155 nM and 85.1 nM | 
COc1ccccc1N1CCN(CCC(Oc2ccc(C(=O)c3cn(CCCC(=O)O)c4ccccc34)c(C)c2C)c2ccc(C)cc2)CC1 (stereo not drawn) [Example 22, 4-{3-{2,3-Dimethyl-4-{1-(4-methylphenyl)-3-[4-(2-methoxyphenyl)piperazin-1-yl]propoxy}benzoyl}indol-1-yl}butanoic acid] | 3.7 |  | 
COc1ccccc1N1CCN(CCCOc2cc(C(=O)c3cn(CCCC(=O)O)c4ccccc34)ccc2OCc2ccc(C)cc2)CC1 [Example 37, Potassium 4-{3-{4-(4-methylphenylmethoxy)-3-{3-[4-(2-methoxyphenyl)piperazin-1-yl]propoxy}benzoyl}indol-1-yl}butanoate] | 3.5 | 120 nM and 19.1 nM | 
